Each compound was assayed on Elongator complex protein 1 (ELPI, also referred to as IKBKAP) (assay: IKBKAP-HTRF assay (IKBKAP protein in lysates of FD patient-derived fibroblasts)). Conditions: FD patient-derived fibroblasts GM04589, 48 hours, 7-point concentration curve.
Assay type: cell-based, human
Description: The assay is used for the quantitative determination of Elongator complex protein 1 (ELPI, also referred to as IKBKAP) concentration in cell lysates using the HTRF® (Homogeneous Time-Resolved Fluorescence) technology. IKBKAP is detected in a sandwich HTRF assay by use of an anti-IKAP antibody labeled with a donor and an anti-IKAP antibody labeled with an acceptor.
Cells were thawed and incubated in DMEM-10% FBS for 72 hours. Cells were trypsinized, counted, and re-suspended to a concentration of 50,000 cells/ml in DMEM-10% FBS. A 199 μL aliquot of the cell suspensions were plated at 10,000 cells per well in a 96 well microtiter plate and incubated for 3 to 5 hours. […] Test compounds were serially diluted 3.16-fold in 100% DMSO to generate a 7-point concentration curve. A 1 μL aliquot of 200× compound solution was transferred to cell-containing wells, and cells were incubated for 48 hours in a cell culture incubator (37° C., 5% CO2, 100% relative humidity). Triplicate samples were set up for each compound concentration. After 48 hours, the supernatant was removed from the cells and 50 μL of the 1×LB4 lysis buffer, containing protease inhibitors, was added to the cells and incubated with shaking at room temperature for 1 hour. A 36 μL aliquot of this lysate was subsequently transferred to the 384-well plate containing 4 μL of the antibody solution (1:50 dilution of anti IKAP d2 and anti-IKAP K(9+8) in detection buffer). The 384-well plate was then centrifuged for 1 minute to bring the solutions to the bottom of the plate and incubated overnight at 4° C. Fluorescence for each well of the plate at 665 nm and 620 nm was measured was on the EnVision plate reader (Perkin Elmer). The ΔF for each sample is calculated by:
[formula] wherein Signal is the normalized fluorescence for each sample well and Blank is the average normalized average fluorescence for the Blank control wells.
The maximum fold increase (MFI) in IKBKAP protein abundance for compounds of Formula (I) or a form thereof relative to the vehicle control are provided in Table 1. MFI was calculated by dividing the ΔF value for each sample well by the sample ΔF for the vehicle control wells.
The EC2x for IKBKAP protein expression obtained from the 7-point concentration curve generated for each test compound according to the protocol in Biological Example 1 are also provided in Table 1. The term “EC2x for IKBKAP protein expression” is defined as the concentration of test compound that is effective in producing two times the amount of IKBKAP protein in a FD patient cell compared to the amount produced from the DMSO vehicle control.

SMILES | EC2x for IKBKAP protein expression (concentration producing two times the amount of IKBKAP protein vs DMSO vehicle control) | MFI (maximum fold increase in IKBKAP protein abundance relative to the vehicle control)
C[C@H](N)Cc1cc2c(NCc3ccco3)nc(Cl)nc2[nH]1 [Cpd 16, 6-[(2S)-2-aminopropyl]-2-chloro-N-[(furan-2-yl)methyl]-7H-pyrrolo[2,3-d]pyrimidin-4-amine] | **** (between >0.005 μM and ≤0.02 μM is indicated by four stars (****)) | **** (between >3.9 and ≤4.9 is indicated by four stars (****))
CC(C)[C@H](N)Cc1cc2c(NCc3ccco3)nc(Cl)nc2[nH]1.Cl [Cpd 11, 6-[(2R)-2-amino-3-methylbutyl]-2-chloro-N-[(furan-2-yl)methyl]-7H-pyrrolo[2,3-d]pyrimidin-4-amine hydrochloride] | *** (between >0.02 μM and ≤0.5 μM is indicated by three stars (***)) | **** (between >3.9 and ≤4.9 is indicated by four stars (****))
C[C@H](N)Cc1[nH]c2nc(Cl)nc(NCc3ccco3)c2c1Cl.Cl [Cpd 13, 6-[(2S)-2-aminopropyl]-2,5-dichloro-N-[(furan-2-yl)methyl]-7H-pyrrolo[2,3-d]pyrimidin-4-amine hydrochloride] | ***** (≤0.005 μM is indicated by five stars (*****)) | ***** (>4.9 is indicated by five stars (*****))
C[C@H](N)Cc1[nH]c2nc(Cl)nc(NCc3ccccc3)c2c1F.Cl [Cpd 50, 6-[(2S)-2-aminopropyl]-N-benzyl-2-chloro-5-fluoro-7H-pyrrolo[2,3-d]pyrimidin-4-amine hydrochloride] | *** (between >0.02 μM and ≤0.5 μM is indicated by three stars (***)) | *** (between >2.9 and ≤3.9 is indicated by three stars (***))
C[C@H](N)Cc1c(F)c2c(NCc3ccccc3)nc(Cl)nc2n1C.Cl [Cpd 51, 6-[(2S)-2-aminopropyl]-N-benzyl-2-chloro-5-fluoro-7-methyl-7H-pyrrolo[2,3-d]pyrimidin-4-amine hydrochloride] | *** (between >0.02 μM and ≤0.5 μM is indicated by three stars (***)) | *** (between >2.9 and ≤3.9 is indicated by three stars (***))
C[C@H](N)Cc1c(Cl)c2c(NCc3ccco3)nc(Cl)nc2n1C.Cl [Cpd 23, 6-[(2S)-2-aminopropyl]-2,5-dichloro-N-[(furan-2-yl)methyl]-7-methyl-7H-pyrrolo[2,3-d]pyrimidin-4-amine hydrochloride] | **** (between >0.005 μM and ≤0.02 μM is indicated by four stars (****)) | ***** (>4.9 is indicated by five stars (*****))
Cc1c(C[C@H](C)N)n(C)c2nc(Cl)nc(NCc3ccco3)c12.Cl [Cpd 35, 6-[(2S)-2-aminopropyl]-2-chloro-N-[(furan-2-yl)methyl]-5,7-dimethyl-7H-pyrrolo[2,3-d]pyrimidin-4-amine hydrochloride] | **** (between >0.005 μM and ≤0.02 μM is indicated by four stars (****)) | ***** (>4.9 is indicated by five stars (*****))
C[C@H](N)Cc1[nH]c2nc(Cl)nc(NCc3ccccn3)c2c1F.Cl.Cl [Cpd 54, 6-[(2S)-2-aminopropyl]-2-chloro-5-fluoro-N-[(pyridin-2-yl)methyl]-7H-pyrrolo[2,3-d]pyrimidin-4-amine dihydrochloride] | *** (between >0.02 μM and ≤0.5 μM is indicated by three stars (***)) | ** (between >1.9 and ≤2.9 is indicated by two stars (**))

From patent publication US12398140B2, “Substituted pyrrolo [2,3-d]pyrimidines for treating familial dysautonomia” (PTC THERAPEUTICS, INC., priority 2019, dated 2025)
